Experimental data from patent publication US20080207522A1, “Antimicrobial Peptides” (priority 2004, published 2008).
Values joined by “and” are separate entries in the source; they are usually repeats but may differ in a detail not shown here. Equal entries are not always repeated.

Tests used:
[1] = system: Pseudomonas aeruginosa strain H1001; experiment: Assay for the cleaved (free, soluble) peptides from cellulose support, luminescence killing assay; format: cell-based; set-up: key: 1: Peptides showing stronger killing than Bac2A at a 4 to 8-fold higher dilution; Peptides showing stronger killing compared to that of Bac2A at a 4-fold higher dilution; 3: Peptides similar to Bac2A; 4: Peptides similar to Bac2A at the highest concentration but demonstrating weaker killing at a 2-fold dilution; 5: Peptides giving very weak or no killing at a 2-fold dilution; 6: Peptides with weak killing activity at the highest concentration; details: free (cleaved) peptides, killing relative to Bac2A
Method: Assay for the cleaved peptides from cellulose support. The peptides were cleaved from the dried membrane in an ammonia atmosphere overnight, resulting in free peptides with an amidated C-terminus. The free peptides contained two β-alanines at the C-terminus, in addition to being amidated due to the linker between the cellulose membrane and the peptide sequence. The peptide spots were punched out and transferred in a 96-well microtiter plate. Serial dilutions were carried out from the membrane spots. Four rows were filled with four controls including two with Bac2A and two with of an unrelated peptide. The other eight rows were used for serial dilution steps of the peptide variants. An overnight culture of Pseudomonas aeruginosa strain H1001 was diluted 1:500 using either LB media or 100 mM Tris buffer pH 7.3, 20 mM glucose and was added to the wells (100 μl/well) containing the peptide spots. In all other wells 50 μl were added. The microtiter plate was incubated for 30 min at 37° C. to release the peptides from the membrane. Subsequently, a dilution series were performed and the plate was incubated at 37° C. The luminescence produced by the ATP dependent luciferase system were detected in a time dependent manner using a Tecan Spectra Fluor plus.
(§1) Strains. For the killing assay a mini-Tn5-lux mutant in Pseudomonas aeruginosa H103 was used. The strain is called H1001 and contains a fliC::luxCDABE transcriptional fusion resulting in constitutive expression of luciferase. The bacterial strains used for the antimicrobial activity assays included Escherichia coli UB1005 (F-, nalA37, metB1), a wild-type Salmonella enterica ssp. Typhimurium (S. Typhimurium), wild-type Pseudomonas aeruginosa PAO1 strain H103, Enterococcus faecalis ATCC29212, Staphylococcus aureus ATCC25923, and a clinical isolate of Staphylococcus epidermidis obtained from Dr. D. Speert (Department of Medicine, University of British Columbia). Antifungal activity was tested using a lab isolate of Candida albicans obtained from Dr. B. Dill (Department of Microbiology and Immunology, University of British Columbia).
Peptide synthesis on cellulose is a very effective and inexpensive way to investigate many different peptide variants for one particular activity. However, one of the problems of this technique is the low peptide density synthesized on the membrane, about 280 nmol per cm2. An average peptide spot used for the experiments presented is about 0.3 cm2. Therefore, an assay had to be developed that was sensitive enough to show activity with this amount of peptides. P. aeruginosa H1001 has a reporter system (e.g., a luciferase gene cassette) incorporated into the bacterial chromosome in the fliC gene (involved in flagellar biosynthesis) that is constitutively expressed. It will thus produce light if ATP is present. When this strain is killed, e.g. by peptides, the amount of light produced will decrease due to a decrease in ATP levels in the killed cells. This action can thus be monitored by detecting luminescence in a microtiter plate luminescence reader over time. The volume and amount of cells per well were optimized for this assay. After screening, the killing action was monitored with small amounts of the parent peptide Bac2A (2 μg/ml of free peptide).
Forty-nine scrambled peptides (Bac002-Bac050) were synthesized on the cellulose support and then cleaved by ammonia gas resulting in free peptides with an amidated C-terminus including the linker. The peptide spots were transferred to a 96-well microtiter plate and incubated for 30 min to dissociate the peptides from the cellulose. After serial dilution and addition of strain H1001, luminescence was recorded in a time dependent manner (FIG. 1). All 50 scrambled peptides were compared to Bac2A ([…]-NH2; SEQ ID NO: 1) by this assay (see Table 2). […] Further since all scrambled peptides had some activity, a sequence-specific interaction of the peptides with a receptor or target could be excluded.

[2] = system: Pseudomonas aeruginosa strain H1001 fliC::luxCDABE; experiment: Luminescence-based assay for the non-cleaved (bound) peptides on cellulose membranes; format: cell-based; details: for Luminescence at the given time in minutes: 0 / Luminescence at the given time in minutes: 20 / Luminescence at the given time in minutes: 40 / Luminescence at the given time in minutes: 60 / Luminescence at the given time in minutes: 80 / Luminescence at the given time in minutes: 100 / Luminescence at the given time in minutes: 120 / Luminescence at the given time in minutes: 180 / Luminescence at the given time in minutes: 240: cellulose-bound peptide; for Luminescence at the given time in minutes: 0: 0 min; for Luminescence at the given time in minutes: 20: 20 min; for Luminescence at the given time in minutes: 40: 40 min; for Luminescence at the given time in minutes: 60: 60 min; for Luminescence at the given time in minutes: 80: 80 min; for Luminescence at the given time in minutes: 100: 100 min; for Luminescence at the given time in minutes: 120: 120 min; for Luminescence at the given time in minutes: 180: 180 min; for Luminescence at the given time in minutes: 240: 240 min; for Activity Class bound: uncleaved cellulose-bound peptides; for ability to inhibit light production (luminescence): cellulose bound peptide spots, three hours at 37° C., FIG. 2
Method: Luminescence-based MIC assay for the non-cleaved peptides on cellulose membranes. The peptide spots were punched out and transferred to a 96 well microtiter plate with a clear polystyrene bottom and opaque white polypropylene sides (PerkinElmer, Boston, USA). The spots were washed two times with 100% ethanol for 5 min and afterwards equilibrated five times with 100 mM Tris buffer pH 7.3 for 5 min. An overnight culture of Pseudomonas aeruginosa strain H1001 fliC::luxCDABE was diluted 1:50 in new MH medium and incubated at 37° C. to an OD600 of 0.35. This bacterial culture was diluted 1:25 into 10 mM Tris-HCl buffer, pH 7.3 containing 20 mM glucose. Fifty μl of this culture was added to all wells of the microtiter plate and incubated at 37° C. The luminescence of the strain produced by the ATP-dependent luciferase system was detected in a time dependent manner using a Tecan Spectra Fluor plus (Tecan, Austria). At the end of the experiment, the membranes were cleaned by washing the spots two times with 100% ethanol for five minutes. After removing the ethanol the membrane was air-dried.
as §1
The same set of peptides, as well as the reversed sequence of Bac2A-R ([…]; SEQ ID NO: 2166), were synthesized on cellulose and left uncleaved. The production of light was initially compared in wells containing spots of Bac2A, Bac2A-R (with the reversed sequence of Bac2A), the unrelated negative-control peptide, or, as additional controls, only cellulose, or only bacteria (FIG. 2).
As a control, the negative control (unrelated) peptide Bac429 and parent peptide Bac2A (=Bac001) were used in several different wells of the microtiter plate. Luminescence (relative light units; RLU) was measured at 14 different time points, 9 of which are shown. To permit comparison of the data with the free peptide data set, the result for each peptide was classified into six different groups, like the data set with the free peptides (Table 2). […] For the soluble peptides the following classes were established: […]

| Sequence | Activity Class Soluble [1] | Luminescence at the given time in minutes: 0 [2] | Luminescence at the given time in minutes: 20 [2] | Luminescence at the given time in minutes: 40 [2] | Luminescence at the given time in minutes: 60 [2] | Luminescence at the given time in minutes: 80 [2] | Luminescence at the given time in minutes: 100 [2] | Luminescence at the given time in minutes: 120 [2] | Luminescence at the given time in minutes: 180 [2] | Luminescence at the given time in minutes: 240 [2] | Activity Class bound [2] | ability to inhibit light production (luminescence) [2] |
| --- | --- | --- | --- | --- | --- | --- | --- | --- | --- | --- | --- | --- |
| VARIVVRLIRAR [Bac013] | 3 | 3890 RLU | 6850 RLU | 3930 RLU | 1584 RLU | 494 RLU | 193 RLU | 111 RLU | 100 RLU | 66 RLU | 3 (Peptides similar to Bac2A resulting in lux values of less than 500 after 240 min.) | – |
| ILVIVRRRARAV [Bac042] | 3 | 5171 RLU | 6703 RLU | 4453 RLU | 2128 RLU | 746 RLU | 244 RLU | 86 RLU | 49 RLU | 52 RLU | 3 (Peptides similar to Bac2A resulting in lux values of less than 500 after 240 min.) | – |
| RRVIAIAVRRLV [Bac050] | 3 | 4803 RLU | 6715 RLU | 5157 RLU | 4430 RLU | 3915 RLU | 3428 RLU | 3246 RLU | 3206 RLU | 3590 RLU | 6 (Peptides having residual luminescence (lux) values greater than 3000 after 240 min.) | – |
| RAVRIVVIRALR [Bac2A-R] | – | – | – | – | – | – | – | – | – | – | – | only a slightly decreased ability to inhibit light production |
| GATPEDLNQKLS [Bac429, negative control (unrelated) peptide, reference compound] | – | 4295 RLU and 4593 RLU and 4337 RLU and 4761 RLU and 4537 RLU | 7478 RLU and 7525 RLU and 7118 RLU and 7536 RLU and 7275 RLU | 6031 RLU and 6900 RLU and 6593 RLU and 6318 RLU and 6459 RLU | 5770 RLU and 6732 RLU and 6716 RLU and 6102 RLU and 6149 RLU | 5449 RLU and 6701 RLU and 6273 RLU and 5996 RLU and 6092 RLU | 4779 RLU and 6812 RLU and 6453 RLU and 6086 RLU and 5799 RLU | 4438 RLU and 6872 RLU and 6210 RLU and 5899 RLU and 5611 RLU | 3939 RLU and 7674 RLU and 6656 RLU and 6384 RLU and 5656 RLU | – | – | no activity in decreasing luminescence |
| RRRVIVAVLARI [Bac046] | 3 | 4408 RLU | 5904 RLU | 2345 RLU | 233 RLU | 76 RLU | 70 RLU | 102 RLU | 48 RLU | 53 RLU | 3 (Peptides similar to Bac2A resulting in lux values of less than 500 after 240 min.) | – |
| RVLIARVVRAIR [Bac027] | – | 4437 RLU | 6695 RLU | 4991 RLU | 4421 RLU | 4011 RLU | 3545 RLU | 3100 RLU | 3182 RLU | 3513 RLU | 6 (Peptides having residual luminescence (lux) values greater than 3000 after 240 min.) | – |
| RRRAIVRVVAIL [Bac023] | – | 3958 RLU | 7783 RLU | 5656 RLU | 3751 RLU | 1827 RLU | 761 RLU | 329 RLU | 123 RLU | 79 RLU | 3 (Peptides similar to Bac2A resulting in lux values of less than 500 after 240 min.) | – |
| IILAVRAVRRVR [Bac029] | – | 4538 RLU | 6664 RLU | 5062 RLU | 3963 RLU | 2745 RLU | 1799 RLU | 1279 RLU | 1012 RLU | 942 RLU | 4 (Peptides reducing luminescence (lux) values to between 500 to 1499 after 240 min.) | – |
| IVVRRRRAALVI [Bac030] | – | 4618 RLU | 7325 RLU | 5921 RLU | 5326 RLU | 4981 RLU | 4418 RLU | 4087 RLU | 3861 RLU | 3679 RLU | 6 (Peptides having residual luminescence (lux) values greater than 3000 after 240 min.) | – |
